Laboratory results: US9006440B2, “Furopyridine derivatives” (Merck Patent GmbH, priority 2010, dated 2015)

Assays:
Format in all cases: biochemical
Syk = biological target: T1, Syk (Homo sapiens, UniProt P43405); assay: Syk enzyme assay (SYK flash plate assay / Caliper mobility shift)
T1 construct: purchased BPS Bioscience, CA, USA
Summary of the method: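 Flashplate format: 2.5 nM SYK, 400 nM biotinylated peptide, 10 μM ATP with 33P-ATP, pH 7.5, 1 h at 30 °C; radioactivity read, staurosporine background. Caliper format: 90 min at 25 °C, mobility-shift read of substrate-to-product conversion; IC50 from dose-response curve.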

KDR = biological target: T2, KDR (Homo sapiens, UniProt P35968); assay: KDR enzymatic assay (Caliper LifeSciences technology)
T2 construct: purchased BPS Bioscience, CA, USA
Experimental: (§1) The assays described here are performed on the Caliper Life Sciences LC3000 system This technology provides data on enzyme activity via measurement of the relative amounts of phosphorylated or unphosphorylated fluorescently labelled substrate peptide at the end of an enzymatic reaction. These different states of peptide are resolved by applying a potential difference across the sample. The presence of the charged phosphate group on the product (as opposed to the substrate) causes a different peptide mobility between the two peptides. This is visualized by excitation of the fluorescent label on the substrate and product peptides and represented as peaks within the analysis software.
(§2) In order to measure inhibitor activity of kinase inhibitors on this technology, a TTP Mosquito liquid handling instrument is used to place 0.25 ul of the appropriate concentration of inhibitor in 100% DMSO (for a dose response curve calculation) into each well of a 384-well plate. To this reaction components are added to a final volume of 25 ul. The table below indicates the sequences and concentrations for the assays described in this report. Standard components are 1 mM DTT (Sigma, D0632), 1 mM MgCl2 (Sigma, M1028), 100 mM HEPES pH 7.5 (Calbiochem, 391338), 0.015% Brij-35 (Sigma, B4184).
(§3) The reaction is incubated for 90 min at 25 C, and then stopped by the addition of 70 ul of Stop buffer (100 mM HEPES pH 7.5, 0.015% Brij-35, 10 mM EDTA (Sigma, E7889)).
(§4) The plate is read on a Caliper LC 3000 in an Off-Chip mobility shift assay format, on a 12-sipper chip. Unphosphorylated substrate and phosphorylated product peptide resolve as separate peaks allowing direct measurement of percentage of conversion of substrate to product. The percent conversion can be plotted against concentration of inhibitor to produce a sigmoidal dose response curve, from which an IC50 can be calculated using GeneData Condoseo or a similar product.

Zap70 = biological target: T3, Zap70 (Homo sapiens, UniProt P43403); assay: ZAP-70 enzymatic assay (Caliper LifeSciences technology)
T3 construct: purchased BPS Bioscience, CA, USA
T3 sequence (P43403 1-619): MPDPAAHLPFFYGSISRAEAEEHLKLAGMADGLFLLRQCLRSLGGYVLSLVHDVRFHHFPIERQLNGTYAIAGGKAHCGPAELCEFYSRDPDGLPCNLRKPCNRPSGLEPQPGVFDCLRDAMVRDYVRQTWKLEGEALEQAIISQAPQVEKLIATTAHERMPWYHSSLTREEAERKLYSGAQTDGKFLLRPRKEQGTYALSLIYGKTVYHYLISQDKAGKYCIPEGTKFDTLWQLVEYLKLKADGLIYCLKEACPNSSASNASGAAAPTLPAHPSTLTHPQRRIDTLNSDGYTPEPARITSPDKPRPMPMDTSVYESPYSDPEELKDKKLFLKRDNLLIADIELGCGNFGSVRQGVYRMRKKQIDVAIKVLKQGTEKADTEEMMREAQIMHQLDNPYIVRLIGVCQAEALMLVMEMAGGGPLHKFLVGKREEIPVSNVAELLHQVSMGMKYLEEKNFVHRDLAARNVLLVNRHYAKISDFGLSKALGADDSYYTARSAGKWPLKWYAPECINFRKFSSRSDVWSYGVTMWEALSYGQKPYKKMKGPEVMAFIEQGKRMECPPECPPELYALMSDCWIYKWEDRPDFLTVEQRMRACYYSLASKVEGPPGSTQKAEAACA
Experimental: as §1, §2, §3, §4

SRC = biological target: T4, SRC (Homo sapiens, UniProt P12931); assay: Src enzymatic assay (Caliper LifeSciences technology)
T4 construct: purchased Carna Bioscience, Kobe, Japan
Experimental: as §1, §2, §3, §4

BTK = biological target: T5, BTK (Homo sapiens, UniProt Q06187); assay: BTK enzymatic assay (Caliper LifeSciences technology)
T5 construct: purchased Carna Bioscience, Kobe, Japan
Experimental: as §1, §2, §3, §4

T2 sequence (P35968 20-1356): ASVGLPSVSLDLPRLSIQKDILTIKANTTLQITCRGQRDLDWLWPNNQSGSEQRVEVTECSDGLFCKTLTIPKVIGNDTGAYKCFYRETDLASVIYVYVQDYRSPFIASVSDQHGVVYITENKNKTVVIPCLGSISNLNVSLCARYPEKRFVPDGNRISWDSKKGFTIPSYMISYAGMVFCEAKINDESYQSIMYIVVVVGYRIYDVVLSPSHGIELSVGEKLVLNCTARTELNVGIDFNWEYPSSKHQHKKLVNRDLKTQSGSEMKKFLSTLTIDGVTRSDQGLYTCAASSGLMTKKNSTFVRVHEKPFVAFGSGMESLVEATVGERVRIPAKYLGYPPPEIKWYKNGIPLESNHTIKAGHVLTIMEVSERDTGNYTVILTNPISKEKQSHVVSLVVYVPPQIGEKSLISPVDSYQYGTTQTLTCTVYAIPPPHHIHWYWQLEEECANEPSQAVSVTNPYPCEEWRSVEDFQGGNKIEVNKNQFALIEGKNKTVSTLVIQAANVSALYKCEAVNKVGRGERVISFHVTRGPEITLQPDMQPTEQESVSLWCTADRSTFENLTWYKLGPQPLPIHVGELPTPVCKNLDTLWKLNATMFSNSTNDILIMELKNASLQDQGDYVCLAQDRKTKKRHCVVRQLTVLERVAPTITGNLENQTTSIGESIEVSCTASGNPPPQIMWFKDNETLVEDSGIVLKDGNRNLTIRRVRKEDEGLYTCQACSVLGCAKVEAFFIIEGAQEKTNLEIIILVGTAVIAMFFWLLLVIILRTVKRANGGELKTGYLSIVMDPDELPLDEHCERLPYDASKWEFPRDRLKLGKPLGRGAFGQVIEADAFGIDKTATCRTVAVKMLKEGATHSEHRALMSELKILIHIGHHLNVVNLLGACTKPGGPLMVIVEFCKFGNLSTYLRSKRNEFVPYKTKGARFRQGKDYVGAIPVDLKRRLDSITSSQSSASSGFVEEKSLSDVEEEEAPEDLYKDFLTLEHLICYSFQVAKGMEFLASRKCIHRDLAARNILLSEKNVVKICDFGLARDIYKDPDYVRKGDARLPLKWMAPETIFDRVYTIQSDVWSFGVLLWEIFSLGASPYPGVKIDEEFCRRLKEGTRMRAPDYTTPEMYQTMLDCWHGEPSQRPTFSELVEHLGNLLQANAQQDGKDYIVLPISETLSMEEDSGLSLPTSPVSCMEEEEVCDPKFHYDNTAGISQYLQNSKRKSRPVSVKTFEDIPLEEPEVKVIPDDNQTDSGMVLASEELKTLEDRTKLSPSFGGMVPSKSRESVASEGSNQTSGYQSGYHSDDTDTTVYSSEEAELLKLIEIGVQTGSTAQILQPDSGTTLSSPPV
T4 sequence (P12931 whole entry): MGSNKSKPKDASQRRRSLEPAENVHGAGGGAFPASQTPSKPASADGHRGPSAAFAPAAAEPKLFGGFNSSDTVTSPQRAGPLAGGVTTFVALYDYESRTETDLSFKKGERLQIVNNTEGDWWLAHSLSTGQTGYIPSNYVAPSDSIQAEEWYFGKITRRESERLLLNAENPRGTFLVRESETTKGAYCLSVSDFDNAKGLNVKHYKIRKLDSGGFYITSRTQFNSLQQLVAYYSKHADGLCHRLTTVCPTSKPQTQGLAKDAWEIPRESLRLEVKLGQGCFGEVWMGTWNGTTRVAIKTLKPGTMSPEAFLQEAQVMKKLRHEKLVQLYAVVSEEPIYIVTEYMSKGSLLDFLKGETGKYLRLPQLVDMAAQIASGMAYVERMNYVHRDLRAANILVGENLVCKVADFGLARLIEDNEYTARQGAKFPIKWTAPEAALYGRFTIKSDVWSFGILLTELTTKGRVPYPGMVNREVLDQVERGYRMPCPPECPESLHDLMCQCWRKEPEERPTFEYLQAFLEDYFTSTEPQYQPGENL
T5 sequence (Q06187 whole entry): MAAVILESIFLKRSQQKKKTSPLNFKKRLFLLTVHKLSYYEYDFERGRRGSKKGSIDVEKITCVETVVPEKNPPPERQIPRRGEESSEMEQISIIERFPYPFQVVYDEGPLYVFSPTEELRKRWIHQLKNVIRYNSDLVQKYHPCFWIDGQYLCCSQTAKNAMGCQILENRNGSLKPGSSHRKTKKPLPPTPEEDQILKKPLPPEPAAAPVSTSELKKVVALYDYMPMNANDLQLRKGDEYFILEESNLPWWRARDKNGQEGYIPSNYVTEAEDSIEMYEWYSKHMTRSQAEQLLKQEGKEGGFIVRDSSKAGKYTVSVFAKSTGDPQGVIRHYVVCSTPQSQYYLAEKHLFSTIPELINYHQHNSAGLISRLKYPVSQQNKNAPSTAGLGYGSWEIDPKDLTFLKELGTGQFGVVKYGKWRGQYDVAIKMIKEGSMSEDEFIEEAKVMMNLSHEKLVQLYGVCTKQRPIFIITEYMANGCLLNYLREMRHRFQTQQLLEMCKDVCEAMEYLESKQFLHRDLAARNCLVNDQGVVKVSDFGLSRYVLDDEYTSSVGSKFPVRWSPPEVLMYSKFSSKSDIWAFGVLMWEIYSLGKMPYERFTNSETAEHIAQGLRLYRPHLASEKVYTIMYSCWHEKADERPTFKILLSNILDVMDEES

Row | SMILES | IC50 (Syk) [µM] | IC50 (KDR) [µM] | IC50 (Zap70) [µM] | IC50 (SRC) [µM] | IC50 (BTK) [µM]
1 | COc1cc(-c2cc3nccc(-c4cccc5[nH]ncc45)c3o2)cc(OC)c1OC [Compound A17, 7-(1H-Indazol-4-yl)-2-(3,4,5-trimethoxy-phenyl)-furo[3,2-b]pyridine] | < 0.3 | 0.3 to 3 | 3 to 50 |  | 
2 | COc1cc(-c2cc3nccc(-c4c[nH]c5ccccc45)c3o2)cc(OC)c1OC [Compound A25, 7-(1H-Indol-3-yl)-2-(3,4,5-trimethoxy-phenyl)-furo[3,2-b]pyridine] | 0.3 to 3 | 3 to 50 | 3 to 50 | 3 to 50 | 
3 | COc1cc(-c2cc3nccc(-c4ccc(C(=O)O)cc4)c3o2)cc(OC)c1OC [Compound A42, 4-[2-(3,4,5-Trimethoxy-phenyl)-furo[3,2-b]pyridin-7-yl]-benzoic acid] | < 0.3 | 3 to 50 | 0.3 to 3 | 3 to 50 | 
4 | COc1cc(-c2cc3nccc(-c4cccc(C(=O)NC5CCCCC5N)c4)c3o2)cc(OC)c1OC (stereo not drawn) [Compound A45, N-(2-Amino-cyclohexyl)-3-[2-(3,4,5-trimethoxy-phenyl)-furo[3,2-b]pyridin-7-yl]-benzamide] | < 0.3 | 3 to 50 | 3 to 50 | 0.3 to 3 | 
5 | COc1cc(-c2cc3nccc(-c4cccc(N)c4)c3o2)cc(OC)c1OC [Compound A55, 3-[2-(3,4,5-Trimethoxy-phenyl)-furo[3,2-b]pyridin-7-yl]-phenylamine] | < 0.3 | 3 to 50 | 0.3 to 3 |  | 
6 | COc1cc(-c2cc3nccc(-c4ccc(N)cc4)c3o2)cc(OC)c1OC [Compound A56, 4-[2-(3,4,5-Trimethoxy-phenyl)-furo[3,2-b]pyridin-7-yl]-phenylamine] | < 0.3 | 0.3 to 3 | 0.3 to 3 |  | 
7 | CNC(=O)c1ccccc1Nc1ccnc2cc(-c3cc(OC)c(OC)c(OC)c3)oc12 [Compound B8, N-Methyl-2-[2-(3,4,5-trimethoxy-phenyl)-furo[3,2-b]pyridin-7-ylamino]-benzamide] | 0.3 to 3 |  |  | 0.3 to 3 | 0.3 to 3
8 | COc1cc(-c2cc3nccc(Nc4ccc5cn[nH]c5c4)c3o2)cc(OC)c1OC [Compound B15] | 0.3 to 3 | 0.3 to 3 | 3 to 50 | 3 to 50 | 3 to 50
9 | OCc1ccc(-c2cc3nccc(-c4ccc(CO)cc4)c3o2)cc1 [Compound B44, {4-[2-(4-Hydroxymethyl-phenyl)-furo[3,2-b]pyridin-7-yl]-phenyl}-methanol] | 0.3 to 3 | < 0.3 |  |  | 3 to 50
10 | Cc1c(Nc2ccnc3cc(-c4ccc(CO)cc4)oc23)ccc2[nH]ccc12 [Compound B61, {4-[7-(4-Methyl-1H-indol-5-ylamino)-furo[3,2-b]pyridin-2-yl]-phenyl}-methanol] | 0.3 to 3 | < 0.3 | < 0.3 |  | 
11 | COc1cc(-c2cc3nccc(-c4ccc5c(c4)OCO5)c3o2)cc(OC)c1OC [Compound B76, 7-(Benzo[d][1,3]dioxol-5-yl)-2-(3,4,5-trimethoxyphenyl)furo[3,2-b]pyridine] | < 0.3 |  | 0.3 to 3 |  | 
12 | Nc1cccc(-c2cc3nccc(Oc4ccc(Oc5ccccc5)cc4)c3o2)c1 [Compound B79, 3-[7-(4-Phenoxyphenoxy)furo[3,2-b]pyridin-2-yl]aniline] | 3 to 50 |  |  |  | 0.3 to 3

Now from value to compound:

Row | IC50 (Syk) [µM] | IC50 (KDR) [µM] | IC50 (Zap70) [µM] | IC50 (SRC) [µM] | IC50 (BTK) [µM] | SMILES
13 | < 0.3 | 3 to 50 | 3 to 50 | 0.3 to 3 |  | COc1cc(-c2cc3nccc(-c4c(OC)cccc4OC)c3o2)cc(OC)c1OC [Compound C2]
14 | < 0.3 | 0.3 to 3 | 3 to 50 |  |  | COc1cc(-c2cc3nccc(-c4cccc(C(=O)NCc5n[nH]c(=O)[nH]5)c4)c3o2)cc(OC)c1OC [Compound C12]
15 | < 0.3 | 0.3 to 3 | 0.3 to 3 | 0.3 to 3 |  | COc1cc(-c2cc3nccc(-c4cnn(C)c4)c3o2)ccc1O [Compound C26]
16 | < 0.3 | 3 to 50 | 3 to 50 |  |  | COc1cc(-c2cc3nccc(-c4ccc(CO)nc4)c3o2)cc(OC)c1OC [Compound C27]
17 | < 0.3 | 0.3 to 3 | 3 to 50 | 3 to 50 |  | Cn1cc(-c2ccnc3cc(-c4cccc(N)c4)oc23)cn1 [Compound C29]
18 | 0.3 to 3 | 0.3 to 3 | 3 to 50 |  |  | COc1ccc(-c2cc3nccc(-c4ccccc4)c3o2)cc1NC(=O)[C@@H]1CCCN1 [Compound C30]
19 | < 0.3 | 3 to 50 | 3 to 50 |  |  | COc1cc(NC(=O)[C@@H]2C[C@@H](O)CN2)cc(-c2cc3nccc(-c4ccccc4)c3o2)c1 [Compound C46]
20 | < 0.3 |  | < 0.3 |  |  | COc1cc(-c2cc3nccc(-c4cnn(Cc5ccccc5)c4)c3o2)cc(OC)c1OC [Compound C58]
21 | < 0.3 | 0.3 to 3 | 3 to 50 | 3 to 50 |  | COc1cc(-c2cc3nccc(-c4ccc5[nH]cnc5c4)c3o2)cc(OC)c1OC [Compound C60]
22 | 0.3 to 3 |  | 3 to 50 |  |  | COc1cc(-c2cc3nccc(-c4ccnn4C)c3o2)cc(OC)c1OC [Compound C64]
23 | 0.3 to 3 | 0.3 to 3 | 3 to 50 |  |  | COCC(O)Cn1cc(-c2ccnc3cc(-c4cc(OC)c(OC)c(OC)c4)oc23)cn1 (stereo not drawn) [Compound C66]
24 | < 0.3 | 0.3 to 3 | 0.3 to 3 |  |  | COc1cc(-c2cc3nccc(-c4ccc5[nH]nnc5c4)c3o2)cc(OC)c1OC [Compound C70]
25 | < 0.3 | < 0.3 | 3 to 50 | 0.3 to 3 | 3 to 50 | COc1cc(-c2cc3nccc(-c4cn[nH]c4)c3o2)cc(OC)c1OC [Compound C72]
26 | < 0.3 | < 0.3 | 0.3 to 3 | 0.3 to 3 | 3 to 50 | COc1cc(-c2cc3nccc(-c4cc[nH]n4)c3o2)cc(OC)c1OC [Compound C73]
27 | < 0.3 | 0.3 to 3 |  |  | 3 to 50 | Cn1cc(-c2ccnc3cc(-c4ccc5nc[nH]c5c4)oc23)cn1 [Compound C123]
28 | < 0.3 |  | 3 to 50 | < 0.3 |  | COc1cc(-c2cc3nccc(-c4ccnc(NCC5CCCNC5)c4)c3o2)cc(OC)c1OC (stereo not drawn) [Compound C185]
29 |  |  |  |  | < 0.3 | O=C(CCl)Nc1ccc(Oc2ccnc3cc(-c4ccccc4)oc23)cc1 [Compound D23, 2-Chloro-N-[4-(2-phenyl-furo[3,2-b]pyridin-7-yloxy)-phenyl]-acetamide]
30 |  |  |  |  | 3 to 50 | CCC(=O)Nc1ccc(Oc2ccnc3cc(-c4ccccc4)oc23)cc1 [Compound D24, N-[4-(2-Phenyl-furo[3,2-b]pyridin-7-yloxy)-phenyl]-propionamide]
31 |  |  |  |  | 0.3 to 3 | C=CC(=O)NCc1ccc(-c2ccnc3cc(-c4ccccc4)oc23)cc1 [Compound D25, N-[4-(2-Phenyl-furo[3,2-b]pyridin-7-yl)-benzyl]-acrylamide]
32 |  |  |  |  | < 0.3 | Cc1cc2nccc(Oc3cccc(NC(=O)CCl)c3)c2o1 [Compound D27, 2-Chloro-N-[3-(2-methyl-furo[3,2-b]pyridin-7-yloxy)-phenyl]-acetamide]
33 |  |  |  |  | 3 to 50 | CCC(=O)Nc1cccc(Oc2ccnc3cc(C)oc23)c1 [Compound D28, N-[3-(2-Methyl-furo[3,2-b]pyridin-7-yloxy)-phenyl]-propionamide]
34 |  |  |  |  | 3 to 50 | CCC(=O)Nc1cccc(-c2ccnc3cc(C)oc23)c1 [Compound D29, N-[3-(2-Methyl-furo[3,2-b]pyridin-7-yl)-phenyl]-propionamide]
